Blank lines part the entries; values can stand above or below the compound they belong to.
Key:
Endothelin-1 receptor = target: T1, Endothelin-1 receptor (Homo sapiens, UniProt P25101); assay: Compound was tested for binding affinity against Endothelin A receptor
T1 sequence (P25101 whole entry): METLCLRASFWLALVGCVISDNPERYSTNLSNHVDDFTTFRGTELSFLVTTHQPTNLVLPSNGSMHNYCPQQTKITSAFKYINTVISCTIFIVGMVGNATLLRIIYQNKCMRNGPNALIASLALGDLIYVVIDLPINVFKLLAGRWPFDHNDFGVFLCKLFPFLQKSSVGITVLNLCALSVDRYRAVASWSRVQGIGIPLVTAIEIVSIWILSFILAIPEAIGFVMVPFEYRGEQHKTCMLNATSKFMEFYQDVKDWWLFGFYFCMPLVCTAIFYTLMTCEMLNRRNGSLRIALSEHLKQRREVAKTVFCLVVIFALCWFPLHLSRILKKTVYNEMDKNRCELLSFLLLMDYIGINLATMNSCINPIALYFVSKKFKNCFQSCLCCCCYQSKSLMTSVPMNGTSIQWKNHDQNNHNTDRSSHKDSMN

[1] = target: T2, Endothelin receptor type B (Homo sapiens, UniProt P24530); assay: Compound was tested for binding affinity against Endothelin B receptor
T2 sequence (P24530 whole entry): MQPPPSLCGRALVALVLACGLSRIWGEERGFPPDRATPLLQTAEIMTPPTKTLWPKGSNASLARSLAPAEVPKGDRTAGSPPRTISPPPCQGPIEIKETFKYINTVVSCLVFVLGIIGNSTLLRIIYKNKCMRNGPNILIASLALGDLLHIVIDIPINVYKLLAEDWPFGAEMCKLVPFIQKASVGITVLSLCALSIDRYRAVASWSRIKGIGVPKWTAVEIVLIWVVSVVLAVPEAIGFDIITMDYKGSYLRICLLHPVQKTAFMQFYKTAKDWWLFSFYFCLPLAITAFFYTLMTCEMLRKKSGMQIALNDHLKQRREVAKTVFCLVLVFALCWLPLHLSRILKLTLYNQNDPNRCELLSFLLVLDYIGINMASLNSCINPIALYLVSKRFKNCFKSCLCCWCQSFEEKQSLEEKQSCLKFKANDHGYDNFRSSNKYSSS

Structure (SMILES): COc1cccc(-c2ccsc2S(=O)(=O)Nc2onc(C)c2Br)c1
IC50 (Endothelin-1 receptor): 1320 nM | IC50 [1]: 56300 nM

Structure (SMILES): Cc1noc(NS(=O)(=O)c2sccc2Oc2ccccc2)c1Br
IC50 (Endothelin-1 receptor): 1450 nM | IC50 [1]: 35500 nM

Structure (SMILES): Cc1noc(NS(=O)(=O)c2sccc2-c2ccccc2)c1Br
IC50 (Endothelin-1 receptor): 819 nM | IC50 [1]: 64400 nM

Structure (SMILES): Cc1noc(NS(=O)(=O)c2ccsc2)c1Br
IC50 (Endothelin-1 receptor): 2750 nM | IC50 [1]: > 100000 nM

Structure (SMILES): Cc1noc(NS(=O)(=O)c2sccc2Cc2ccccc2)c1Br
IC50 (Endothelin-1 receptor): 2600 nM | IC50 [1]: 39800 nM

Structure (SMILES): Cc1ccccc1-c1ccsc1S(=O)(=O)Nc1onc(C)c1Br
IC50 (Endothelin-1 receptor): 306 nM | IC50 [1]: > 100000 nM

Structure (SMILES): Cc1noc(NS(=O)(=O)c2ccsc2-c2ccccc2)c1Br
IC50 (Endothelin-1 receptor): 603 nM | IC50 [1]: 74100 nM

Structure (SMILES): Cc1noc(NS(=O)(=O)c2ccccc2)c1Br
IC50 (Endothelin-1 receptor): 2510 nM | IC50 [1]: > 100000 nM

Structure (SMILES): Cc1ccc(-c2ccsc2S(=O)(=O)Nc2onc(C)c2Br)cc1
IC50 (Endothelin-1 receptor): 315 nM | IC50 [1]: 95500 nM

Structure (SMILES): Cc1noc(NS(=O)(=O)c2sccc2-c2ccc(CCC(C)C)cc2)c1Br
IC50 (Endothelin-1 receptor): 182 nM

Structure (SMILES): Cc1noc(NS(=O)(=O)c2cccs2)c1Br
IC50 (Endothelin-1 receptor): 1910 nM | IC50 [1]: > 100000 nM

Structure (SMILES): Cc1noc(NS(=O)(=O)c2ccccc2-c2ccccc2)c1Br
IC50 (Endothelin-1 receptor): 16.2 nM | IC50 [1]: > 100000 nM

Structure (SMILES): COc1ccc(-c2ccsc2S(=O)(=O)Nc2onc(C)c2Br)cc1
IC50 (Endothelin-1 receptor): 334 nM | IC50 [1]: 62100 nM

The remaining compounds from weak to strong by IC50 [1], led by results:

IC50 (Endothelin-1 receptor): 3390 nM | IC50 [1]: 13500 nM
Structure (SMILES): Cc1noc(NS(=O)(=O)c2cc(-c3ccccc3)cs2)c1Br

IC50 [1]: 8160 nM
Structure (SMILES): CCCc1ccc(-c2ccsc2S(=O)(=O)Nc2onc(C)c2Br)cc1

IC50 (Endothelin-1 receptor): 42.9 nM | IC50 [1]: 2910 nM
Structure (SMILES): CCCc1ccc(-c2ccsc2S(=O)(=O)Nc2onc(C)c2Br)c(C)c1

IC50 [1]: 2900 nM
Structure (SMILES): Cc1noc(NS(=O)(=O)c2sccc2-c2ccc(CC(C)C)cc2)c1Br

IC50 (Endothelin-1 receptor): 115 nM | IC50 [1]: 2450 nM
Structure (SMILES): Cc1cc(CCC(C)C)ccc1-c1ccsc1S(=O)(=O)Nc1onc(C)c1Br

IC50 (Endothelin-1 receptor): 47.9 nM | IC50 [1]: 1510 nM
Structure (SMILES): Cc1cc(CC(C)C)ccc1-c1ccsc1S(=O)(=O)Nc1onc(C)c1Br

Source: ChEMBL document CHEMBL1128922, “Thiophenesulfonamides as endothelin receptor antagonists” (Bioorg Med Chem Lett, 1996)
